# How the values were obtained:
# [1] = test system: patients with ALS; assay: BENEFIT-ALS clinical trial: ALSFRS-R total score; format: in vivo, human; conditions: Modified FAS
# Method: (§1) BENEFIT-ALS was a multi-national, randomized, stratified, double-blind, placebo-controlled, parallel-group study of tirasemtiv in patients with ALS. The study consisted of a screening period, an open-label/lead-in period, and a double-blind treatment period. Following screening, eligible patients received open-label tirasemtiv, 125 mg BID, for 7 days. Patients who tolerated the 7-day lead-in period were randomized in a 1:1 ratio to tirasemtiv or placebo. Over the first 3 weeks of double-blind treatment, patients randomized to tirasemtiv had their TDD up-titrated as follows: 250 mg for 7 days, then 375 mg for 7 days, then 500 mg for 7 days. […] However, in such cases, dose escalation was re-attempted at least one additional time. The highest tolerable tirasemtiv dose for each individual patient was the dose that patient received for the remaining 9 weeks (i.e., the maximum tolerated dose [MTD] phase) of the study. Patients randomized to placebo underwent a corresponding dummy dose titration.
# Randomization was stratified by riluzole use. […] Clinical assessments occurred every 4 weeks during double-blind treatment; patients also returned for follow-up evaluations at 1 and 4 weeks after their final dose of double-blind study medication (FIG. 1). […]
# Eligible patients were males and females, 18 years of age and older, with a diagnosis of familial or sporadic ALS and meeting the World Federation of Neurology El Escorial criteria of definite ALS, probable ALS, laboratory-supported probable ALS, or possible ALS. Patients were to have an upright SVC>50% of predicted for age, height, and sex, a diminished, but measurable, maximum voluntary grip strength in at least one hand (i.e., between 10-50 pounds for females and 10-70 pounds for males), and at least 4 of the 12 ALSFRS-R questions were to have been scored as a 2 or 3. […]
# Safety data presented were based on the safety analysis set, defined as all patients who received at least 1 dose of double-blind study drug. […] Data for the primary and secondary efficacy endpoints were analyzed with the Modified FAS. […]
# [2] = test system: patients with ALS; assay: BENEFIT-ALS clinical trial: handgrip fatigue at 60% of target in the weaker hand; format: in vivo, human
# Method: as §1
# Randomization was stratified by riluzole use. […] Clinical assessments occurred every 4 weeks during double-blind treatment; patients also returned for follow-up evaluations at 1 and 4 weeks after their final dose of double-blind study medication (FIG. 1).
# The secondary objectives included assessments of the effect of tirasemtiv versus placebo on measures of respiratory function (Maximum Voluntary Ventilation (MVV), Sniff Nasal Inspiratory Pressure (SNIP), SVC) and skeletal muscle function including handgrip fatigue and muscle-strength mega-score (i.e., the average z-score for muscle strength measurements across the following tested bilateral muscle groups: elbow flexion, wrist extension, knee extension, ankle dorsiflexion, and handgrip)). Secondary endpoints included the changes from baseline in each of the above mentioned measures (MVV, SNIP, SVC, and muscle-strength mega-score) for the Modified FAS, and the slope of each of the measures from baseline to Week 12 for the Modified FAS.
# Eligible patients were males and females, 18 years of age and older, with a diagnosis of familial or sporadic ALS and meeting the World Federation of Neurology El Escorial criteria of definite ALS, probable ALS, laboratory-supported probable ALS, or possible ALS. Patients were to have an upright SVC>50% of predicted for age, height, and sex, a diminished, but measurable, maximum voluntary grip strength in at least one hand (i.e., between 10-50 pounds for females and 10-70 pounds for males), and at least 4 of the 12 ALSFRS-R questions were to have been scored as a 2 or 3. Patients were to be able to swallow tablets without crushing, and in the opinion of the investigator, were expected to do so for the duration of the study. If the patient needed a caregiver, the caregiver was to be able to observe the patient's status. Clinical laboratory results were to be either within their respective normal ranges or if outside the normal range, deemed not clinically significant by the investigator. […] Patients not taking riluzole prior to study entry were not permitted to take riluzole at any dose during the course of the study.
# Safety data presented were based on the safety analysis set, defined as all patients who received at least 1 dose of double-blind study drug. Of the 605 randomized patients, 596 (295 placebo, 301 tirasemtiv) received at least 1 dose of double-blind study drug and were included in the safety analysis set. Data for the primary and secondary efficacy endpoints were analyzed with the Modified FAS. This analysis set included all patients who received at least 1 dose of double-blind study drug and had at least 1 efficacy assessment during the double-blind treatment period, and excluded 156 patients who were randomized in blocks containing patients affected by a study drug assignment error in which 58 patients randomized to and treated with double-blind tirasemtiv were dispensed double-blind placebo instead. […]
compound,measurement,setting,value
"C#Cc1cnc2nc(O)n(C(CC)CC)c2n1 [Tirasemtiv, 6-ethynyl-1-(pentan-3-yl)-1H-imidazo[4,5-b]pyrazin-2(3H)one]","ALSFRS total score change versus placebo, in words",[1]; Visits 6 and 7,not statistically different between treatment groups
same,LS mean±SE difference between treatment groups (tirasemtiv response minus placebo response) in ALSFRS total score change,"[1]; Visits 6 and 7, 95% CI −1.30, 0.14, p=0.114",−0.58±0.366
same,LS mean change from baseline to the average of ALSFRS total score at Visits 6 and 7,"[1]; after approx. 8 and 12 weeks double-blind, tirasemtiv BID up to 500 mg/day",−2.98
same,Handgrip fatigue slope from baseline to Week 12,[2]; Modified FAS N=178,0.0458
same,"Handgrip fatigue at 60% of target in the weaker hand, change from baseline (LS mean)","[2]; Week 4, Modified FAS N=178",-1.77 s
same,"Handgrip fatigue at 60% of target in the weaker hand, change from baseline (LS mean)","[2]; Week 8, Modified FAS N=178",4.60 s
same,"Handgrip fatigue at 60% of target in the weaker hand, change from baseline (LS mean)","[2]; Week 12, Modified FAS N=178",-0.57 s
same,"Handgrip fatigue versus placebo, in words","[2]; human, in vivo",no statistically significant difference between treatment groups
same,Handgrip fatigue difference in slope (tirasemtiv vs placebo),[2]; p=0.6372,0.0332

# From patent publication US20170042890A1, “METHODS OF REDUCING DECLINE IN VITAL CAPACITY” (Cytokinetics, Inc., priority 2014, published 2017)
